Test results: patent US20200289521A1, “USE OF VITAMIN K IN COMBINATION WITH ANTICOAGULANTS” (KAYDENCE PHARMA AS, priority 2019, published 2020)

Columns and labels:
VSMCs [1] = test: Oxidative stress in VSMCs (DCFDA to DCF fluorescence); assay type: cell-based; conditions: 10 μM, fluorescence measured for 6 hours
Method: (§1) It is known that the level of reactive oxygen species in cells can be measured by measuring the conversion of 2′,7′-dichlorofluorescein diacetate (DCFDA) to the fluorescent dye 2′,7′-dichlorofluorescein (DCF). The fluorescence generated by cells subjected to DCFDA is directly proportional to the amount of oxidized DCFDA to DCF.
To perform the study, VSMCs (10,000 cells/well) were plated in a 96-well plate and left to adhere overnight. Next, cells were incubated for 1 hour with 20 μM DCFDA. The medium was then changed to medium supplemented with 10 μM vitamin K2 (MK-7). To visualize intracellular oxidative stress, fluorescence was measured for 6 hours and fluorescence intensity was normalized for cell count.

VSMCs [2] = test: Warfarin-induced oxidative stress in VSMCs, effect of vitamin K2 (DCFDA); assay type: cell-based
Method: as §1
This study was performed to determine if vitamin K2 (MK-7) reduces warfarin-induced oxidative stress. To perform the study, VSMCs (10,000 cells/well) were plated in a 96-well plate and left to adhere overnight. Next, cells were incubated for 24 hours with 100 μM warfarin. The next day, 20 μM DCFDA was added to the cells for 1 hour. The cells were then incubated for 5 hours with normal medium (baseline), vitamin K2 (MK-7), or warfarin. Fluorescence was measured and fluorescence intensity was normalized for cell count.

VSMCs [3] = test: ATP increase in VSMCs, 24 hours (luminescence); assay type: cell-based; conditions: 10 μM
Method: This study was performed to determine if vitamin K2 (MK-7) affects ATP generation. ATP is generated via glycolysis in the cytoplasm and via both the Krebs-cycle and oxidative phosphorylation in the mitochondria. ATP generation via glycolysis delivers only 2 ATP, whereas ATP generation in the mitochondria generates some 32 ATP.
(§2) To perform this study, VSCMs (5000 cells/well) were plated in 96-well plates and left to adhere overnight. Next, cells were incubated for 24 hours with either vehicle, vitamin K2 (MK-7) (10 μM), or UQ10 (10 μM). Hoechst was added to correct for cell number (1 μg/mL). Next, ATP was measured using mammalian lysis buffer for 5 minutes after which 50 μL ATP substrate solution was added to the wells and incubated for 10 minutes in a dark environment. Finally, the medium was transferred to a white plate to measure luminescence

VSMCs [4] = test: Hypoxia-induced ATP decrease, co-treatment with CoCl2 (luminescence); assay type: cell-based; conditions: co-treatment CoCl2 100 μM and 10 μM test substance, 24 hours
Method: This study was performed to investigate whether vitamin K2 (MK-7) can prevent the hypoxia-induced decrease in ATP (CoCl2 treatment, thereby stabilization of HIF1a). To perform this study, VSMCs were co-treated with CoCl2 and vitamin K2 (MK-7).
as §2, with “First,” for “To perform this study,”, “CoCl2 (100 μM) or CoCl2 and” for “vehicle,”, “(MK-7)” for “(MK-7) (10 μM),”, “together (100 and 10 μM, respectively). Next, ATP was measured and corrected for cell numbers. CoCl2 values were set as relative to CoCl2 co-treated with vitamin K2 (MK-7) or UQ10.” for “(10 μM).”, “Finally,” for “Finally, the”, “luminescence.” for “luminescence”

VSMCs [5] = test: ATP over time in VSMCs with vitamin K2 (luminescence); assay type: cell-based; conditions: 10 μM, indicated time points
Method: To perform this study, first, VSCMs (5000 cells/well) were plated in 96-well plates and left to adhere overnight. Next, cells were incubated for indicated time points with vitamin K2 (MK-7) (10 μM). Hoechst was added to correct for cell number (1 μg/mL). Next, ATP was measured using mammalian lysis buffer for 5 minutes, after which 50 μL ATP substrate solution was added to the wells and incubated for 10 minutes in a dark environment. Finally, medium was transferred to a white plate to measure luminescence.

[6] = tested on: whole-blood thrombogenicity; test: T-TAS Total Thrombus-formation Analysis of whole blood from treated Sprague-Dawley rats; assay type: in vivo
Method: (§3) This experiment was conducted in order to evaluate the effects of vitamin K2 (MK-7) on the anticoagulant activity of the new oral anticoagulants (NOAC) rivaroxaban and dabigatran using the T-TAS Total Thrombus-formation Analysis System. The T-TAS Total Thrombus-formation Analysis System is a microchip-based flow chamber system capable of evaluating whole-blood thrombogenicity. It is a useful tool in monitoring the efficacy of anticoagulants on thrombus formation and predicting the risk of bleeding complications. To perform the study, 45 wild-type male Sprague-Dawley and 45 transgenic male Ren-2 rats [TGR(mREN-2)27] at the age of 10-11 weeks at the beginning of the treatment period were purchased from animal facility IKEM-CEM Institute of Clinical and Experimental Medicine (Prague, Czech Republic). All animals in the experiment were housed in individually ventilated cages (2-3 rats per cage) and kept in the animal rooms of JCET at a relative humidity of 55±10%, a temperature of 22±2° C., and a light cycle of 7 AM to 7 PM. The rats had free access to food and water. After delivery, animals were randomly divided into 10 experimental groups (5 or 10 rats per group), as indicated below in Table 1. Four days before the start of the treatment, the first part of animals' body weight and food intake was measured in selected representative three cages (rats n=9) to calculate the appropriate amount of tested compounds required for addition to the diet to obtain the dosing indicated in Table 1. It was estimated that food intake was approximately 30 g of chow per rat per day. The animals were fed for two weeks with AIN-93G diet supplemented with rivaroxaban or dabigatran with/without Vitamin K2 (MK-7), as indicated in Table 1. The animals were then anesthetized in order to draw blood samples for further analysis. The body mass of the rats was measured at the beginning and at the end of treatment. At the beginning and at the end of treatment, the food intake per day was measured in representative group of animals to monitor the daily dosing of tested compounds (per kg of body mass). The thrombus formation in vitro was measured in whole blood using a microchip-based flow chamber system according to manufacturers' protocol (Total Thrombus-formation Analyser System, T-TAS; Fujimori Kogyo Co., Ltd., Tokyo, Japan). For the analysis, citrated whole blood (480 μl) was mixed with 20 μl of 300 mM CaCl2 solution containing 1.25 mg/ml CTI (Corn Trypsin Inhibitor). […] The obtained flow pressure pattern for each sample was used to analyze thrombus formation based on the following estimated parameters: […]

[7] = tested on: whole-blood thrombogenicity; test: T-TAS Total Thrombus-formation Analysis of whole blood from treated TGR rats; assay type: in vivo, transgenic Ren-2 rats [TGR(mREN-2)27]
Method: as §3

**Q.** What does the source list for `CC(C)=CCC/C(C)=C/CC/C(C)=C/CC/C(C)=C/CC/C(C)=C/CC/C(C)=C/CC/C(C)=C/CC1=C(C)C(=O)c2ccccc2C1=O` [vitamin K2 (MK-7)]?
**A.** oxidative stress (DCF fluorescence normalized for cell count) (VSMCs [1]): clearly reduced the oxidative stress; normal oxidative stress (VSMCs [2]; 5 hours incubation, no warfarin): reduced not only normal oxidative stress; warfarin-induced oxidative stress (VSMCs [2]; 24 hours 100 μM warfarin, then 5 hours incubation): counteracted the warfarin-induced oxidative stress; ATP production compared to the vehicle (VSMCs [3]): increased ATP production in VSMCs significantly (p=0.014); hypoxia-induced decrease in ATP generation (VSMCs [4]): could (partially) prevent the decreased ATP generation; ATP production over time (VSMCs [5]): stimulated ATP production; increase of occlusion Time (OT) by addition of vitamin K2 (MK-7) ([6]; added to dabigatran and to rivaroxaban): 5-7%; formation of a clot (AUC) ([6]; vitamin K2 (MK-7) added to dabigatran or rivaroxaban): did not prevent the formation of a clot; effect of vitamin K2 (MK-7) on inhibition of thrombus formation by dabigatran and rivaroxaban [7]: did not modify this effect significantly
